In a melting point compilation (Tetko et al.; mined from patent text by program, amines drawn as free bases though some values may be those of a salt):

SMILES | melting point [°C]
COC(=O)CCCN1CCC(CNC(=O)[C@@H]2CCCN2S(=O)(=O)c2ccc(Cl)c(COc3cccc4c(-n5ccnc5)cc(C)nc34)c2Cl)CC1 | 98
O=C(Cc1ccccc1)N1CCCSC1=C[N+](=O)[O-] | 121 to 122
CC(=O)Nc1nc(CSc2ccc([N+](=O)[O-])cc2)cs1 | 165 to 166
COc1ncc(CN2C(=O)C3(COc4cc5c(cc43)CCO5)c3ccccc32)cn1 (stereo not given) | 203 to 204
CC(C)C(=C=O)NC(=O)Nc1ccc([N+](=O)[O-])cc1O | 168 to 169
COc1ccc2c(c1)CC(NC(=S)NCCOC(=O)c1ccccc1)CC2 (stereo not given) | 103 to 106
Nn1c(=O)c(-c2cccs2)nc2ccccc21 | 164
O=C(c1cccs1)C(Cc1ccccc1F)n1cncn1 (stereo not given) | 121 to 122
CN(C(=O)c1ccc(-c2ccccc2)cc1)c1ccccc1 | 99 to 102
N=c1nc(Cl)cc(N)n1O | 193
Cc1cc(C(=O)N2Cc3cccn3Cc3ccccc32)cc(C)c1-n1c(C)ccc1C | 104 to 106
COc1nc(O)cc(CCl)n1 | 154 to 155
CC(=O)OCc1nc2nccnc2c(=O)[nH]1 | 210 to 212
CCOc1ccc(O)c2c1C(=O)N(CSc1nnnn1-c1ccccc1)S2(=O)=O | 178 to 180
O=C(C=Cc1ccccc1)Nc1ccc2ccc(Cl)nc2n1 | 263
COc1cc(C2=Nc3ccc(N4CCCC4)cc3C(=O)C2)ccc1O | 310 to 312
c1cc(COc2ccc3ccccc3c2)cc(-c2nnn[nH]2)c1 | 200 to 202
CCCCCCOc1ccc(S(=O)(=O)N(CC(=O)NO)CC(C)C)cc1 | 108 to 110
COc1ccc2cc(Nc3ccc(O)cc3)ccc2c1 | 153 to 154
COc1cc(OC)c2c(=O)[nH]c(-c3cc(C)c(OCCOCc4ccccc4)c(C)c3)nc2n1 | 204 to 206
COc1ccc(N2CCN(c3ccc(-n4cnn(C(C)C(F)(F)F)c4=O)cc3)CC2)cc1 (stereo not given) | 199
Cc1c(O)cc2c(c1C)N(C=O)CC2 | 192 to 193
CC1=C(c2ccccc2F)C(=O)N(C(C)(C)C(O)c2ccc(F)c(C)c2)CO1 (stereo not given) | 87.6 to 89
COc1ccc2c(c1)CN(Cc1c[nH]c3ccccc13)C2 | 178 to 180
CN1C(=O)N(c2c(Cl)cccc2Cl)Cc2cnc(Nc3ccccc3)nc21 | 222 to 224

SMILES | melting point [°C]
Cc1ccc(N2C(=O)c3ccccc3C2=O)nn1 | 214
Nc1ncc2cc(-c3c(F)cccc3F)c(N)nc2n1 | > 300
Cc1c(CCN(C)C(=O)OC(C)(C)C)c2cc(S(=O)(=O)c3cc(F)cc(F)c3)ccc2n1C | 158 to 162
O=C1CC2(CC(=O)O1)c1ccccc1Oc1ccccc12 | 188 to 190
CCCCCCCCCCCCCCOCCCSCCCO | 38 to 41
CC(=O)Nc1ccc(C)c2c1C(=O)CCN2CC#N | 190 to 193
CCOC(=O)c1ccsc1NC(=O)NCCN1CCN(c2ccc(OC)cc2)CC1 | 103 to 106
NCCN1CCC(Nc2nc3ccccc3n2Cc2cccs2)CC1 | 137
CCCCCc1cc(O)c2c3c(c(=O)oc2c1)SC(C)C3 (stereo not given) | 188 to 190
CN(C)C(=S)Sc1cc(=O)n(Cc2ccccc2)s1 | 184 to 186
Cc1cc(C)cc(Nc2nccc(-n3ccnc3-c3ccccc3)n2)c1 | 183
O=C(O)COc1ccc(OCCC2CCN(c3ccncc3)CC2)cc1 | 247 to 249
O=C(O)c1c(-c2cccc(Cl)c2)csc1N1C(=O)c2ccccc2C1=O | 203 to 204
Cn1cc(C#N)c(-c2ccco2)n1 | 104 to 106
CCOC(=O)c1c(C(F)(F)F)nc(C(F)F)c(C(=O)OC)c1C1CO1 (stereo not given) | 57.5 to 59
CN(N=Cc1ccccc1C(=O)O)c1nc2ccccc2o1 | 253 to 255
CCOC(=O)C(=CNc1ccc(OC)c(=O)cc1)C(=O)OCC | 108 to 110
Cc1nc2c(N)nc3ccccc3c2n1CCCNC(=O)N1CCOCC1 | 226 to 228
COc1ccc(C2(C#N)CCC(=O)C(C(N)=O)C2)cc1OCC1CC1 (stereo not given) | 154 to 155
O=C(NCCCS(=O)(=O)c1ccncc1)c1cccs1 | 124 to 125
O=C1c2ccccc2C(=O)N1CCCN1c2ccccc2C(c2ccccc2)=Nc2cccnc21 | 170 to 172
CCn1c(=O)c(-c2c(Cl)cccc2Cl)cc2cnc(Nc3ccc(OC)cc3)nc21 | 213 to 215
COC(=O)COc1cc(C)ccc1C=O | 63 to 64
CC1(C)CC(C)(C)c2cc(CC(=O)O)ccc21 | 143
N#Cc1ccc(OCCCOc2ccc(-c3cc4cc(C#N)ccc4o3)cc2)cc1 | 188 to 189

SMILES | melting point [°C]
COc1ccc(S(=O)(=O)N2CCc3cccc(-c4ccco4)c32)cc1 | 177 to 178
CSc1nc(C)ccc1NC(=O)CSc1nc2ccccc2[nH]1 | 192 to 193
COCCN1CCn2c1nc(C(=O)NCc1ccc(F)cc1)c(OCc1ccccc1)c2=O | 150
N#CCOc1cc(-c2ccccc2)[nH]n1 | 143
O=c1[nH]c2ccccc2n1CCCN1CCN(C(c2ccccc2)c2ccccn2)CC1 (stereo not given) | 142
CS(=O)(=O)C(=C1CN(C(c2ccccc2)c2ccccc2)C1)c1cc(Cl)ccc1Cl | 202
CC1(C)C(=O)ON(Cc2ccc(Cl)cc2Cl)C1=O | 68 to 69.5
Cc1ccc2cc(-c3cccc4ccccc34)ccc2n1 | 111
Cc1cc(C)c(N2CCC2=O)cc1NS(=O)(=O)C(F)(F)F | 137 to 139
O=C(CCN1CCN(c2ccc(F)cc2)CC1)c1cnn2c1CCCC2 | 141 to 142
O=C(O)c1ccc2c(c1)S(=O)(=O)c1ccccc1C2 | 229 to 248
N#Cc1cccnc1N1CCN(CC(=O)Nc2ccccc2F)CC1 | 78 to 79
CCCCCCCCCCCCCCCCCC(O)c1ccc(C(=O)O)c(Cl)c1 (stereo not given) | 93 to 96
C#CCNC(=O)c1cccc(F)c1Nc1nc(Nc2ccc3c(c2)OCCCN3C(C)=O)ncc1Cl | 196 to 199
OC(CNC1=NCCCN1)c1ccccc1 (stereo not given) | 188
CC(C)(C=NO)C(O)(CCc1ccc(F)cc1)Cn1cncn1 (stereo not given) | 101 to 103
C=C=COc1ccccc1S(N)(=O)=O | 94 to 95
CC(=O)c1ccc(N(C)C)c(S(N)(=O)=O)c1 | 184 to 185
CN1C(=O)C(=CN2CCOCC2)N=C(c2ccccc2Cl)c2cc(F)ccc21 | 110 to 115
N[C@@H]1C[C@H](C2CCCCC2)c2ccccc2NC1=O (relative stereo) | 96 to 98
O=C(O)c1ccc(C(=O)C=Cc2ccccc2)cc1 | 217 to 220
Cc1cccc(Cl)c1CCCOc1oc(-n2ccnc2C)nc1-c1ccc(Cl)cc1 | 115 to 116
O=C(CCCCCl)c1ccccc1 | 49 to 50
Cc1cc(C#N)cc(C)c1Nc1nc(Nc2ccc(C#N)cc2)ncc1Br | 277 to 280
Cc1nc(Cc2ccccc2N)n[nH]1 | 143 to 145
